Data published in EP4682146A1, “COMPOSITION INCLUDING NOVEL PYRIDOINDOLE DERIVATIVE COMPOUND AS ACTIVE INGREDIENT FOR PREVENTION OR TREATMENT OF NEURODEGENERATIVE DISEASES” (Neurotarge Co., Ltd., priority 2023, dated 2024).

Each compound was assayed against T1, Tau-Synaptogyrin3 interaction (Homo sapiens, UniProt O43761+P10636) (assay: Cell-based split luciferase (NanoBit) protein complementary assay for Tau-Synaptogyrin3 interaction in stable cell line HEK293T-TK252-1E2). Conditions: HEK293T-TK252-1E2 cells, 48 hrs compound treatment, L/F value (luciferase activity/fluorescent intensity) compared to DMSO control.
T1 construct: expressed in transfected cells
T1 sequence (P10636 1-441 isoform P10636-8): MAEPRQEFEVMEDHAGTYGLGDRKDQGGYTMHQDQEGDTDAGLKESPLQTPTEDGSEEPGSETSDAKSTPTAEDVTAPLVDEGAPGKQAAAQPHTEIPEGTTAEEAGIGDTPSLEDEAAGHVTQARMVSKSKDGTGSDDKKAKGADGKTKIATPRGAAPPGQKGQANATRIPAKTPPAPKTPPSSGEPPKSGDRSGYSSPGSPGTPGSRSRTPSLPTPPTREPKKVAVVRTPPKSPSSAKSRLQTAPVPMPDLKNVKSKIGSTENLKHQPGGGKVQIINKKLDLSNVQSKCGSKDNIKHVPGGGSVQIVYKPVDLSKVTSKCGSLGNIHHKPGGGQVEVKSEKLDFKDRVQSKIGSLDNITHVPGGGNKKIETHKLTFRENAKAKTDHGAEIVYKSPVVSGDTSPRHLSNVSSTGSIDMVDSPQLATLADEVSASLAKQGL
T1 sequence (O43761 whole entry): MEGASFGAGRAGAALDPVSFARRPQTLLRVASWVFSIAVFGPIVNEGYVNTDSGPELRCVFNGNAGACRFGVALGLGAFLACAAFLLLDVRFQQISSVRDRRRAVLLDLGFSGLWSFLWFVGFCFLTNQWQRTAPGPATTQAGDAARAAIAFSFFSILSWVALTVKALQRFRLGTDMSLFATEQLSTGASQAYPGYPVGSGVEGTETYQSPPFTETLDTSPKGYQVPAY
Protocol: Live cell luciferase assay: Live cell luciferase activity was measured using NanoGlo® Live Cell Assay System (Cat# N2012. Promega, WI, USA), according to manufacturer's instruction. All microplate-based measurement was performed with BioTek Synergy H1 (Agilent. CA, USA).
For producing HEK293T-TK252 stable cell line for screening, BglII-linearized pTK252 was transfected to HEK293T cells. After 24 hrs transfection, the transfected cells were cultured in the culture media containing 1 µg/ml puromycin (10 mM in DMSO, Cat# J61278/ Alfa Aesar. ThermoFisher Korea, Seoul, Korea) for 9 days. Regular media change was performed in every 3 days with fresh puromycin of indicating concentration during the whole selection period. The selected cells were trypsinized and diluted to 5 cells/ml and seeded to 4x 96 well cell culture plates (100 µl/well), and cultured with the cell culture media containing 1 µg/ml puromycin for 11 days. 18 wells that contained only GFP-positive cells were selected for expansion, and cultured with the cell culture media containing 0.1-0.2 µg/ml puromycin for 14 days. 10 clones were discarded during the expansion due to emerging of non-GFP cells, and 8 clones were validated. The selected clone (1E2) was cultured with the cell culture media containing 0.5 µg/ml puromycin for further experiments.
3 µmol of 1,728 compounds were purchased from Otava Chemicals MB (Vilniaus, Lithuania), dissolved into 300 µl DMSO (10 mM) and stored at -80°C. 4x10^4 HEK293T-TK252-1E2 cells were seeded with 100 µl of the cell culture media into 96 white well cell culture plates (Cat# 30196. SPL, Seoul, Korea), 48 hrs prior to compound treatment. For 10 µM compound treatment, 10 mM compound stock was diluted to 50 µM with the cell culture media, and 25 µl of the diluted compound was added to the designated wells of the 96 well plates. For dose-response experiments, the amount of compounds for dilution was adjusted to fit the volume indicated above. After 48 hrs compound treatment, the cells were washed once with OptiMEM and live cell luciferase activity, fluorescent intensity and fluorescence area scan was measured.
1,728 compounds were treated at 10 µM to HEK293T-TK252-1E2 cells and incubated for 48 hrs. […] Single wash step with culture media without FBS was included before measurement to discard dead cells and to remove FBS that affects luciferase assay. […] Fluorescent intensity was taken for normalization, which is expected to be proportion to the cell number at the measuring point. L/F value which is luciferase activity normalized with fluorescent intensity (L/F = Luciferase activity/ Fluorescent intensity) was calculated for all measurements and compared to L/F value of DMSO controls to calculated the size of inhibitory effect. […] Fluorescence area scan (FA) performed right after luciferase activity and fluorescent intensity measurement, to validate total remaining fluorescent cells in a well as a proxy to the cellular toxicity. FA value was in proportion to WST assay results (data not shown), and average CV of triplicates of all measurements was 0.04.
61 compounds were further tested for dose-response profile, based on inhibitory effect that was measured by L/F value (<60%) and FA-based cell viability (>90%) at 10 µM compared to DMSO control. 10 compounds were considered as hit compounds through three times of reproduction.

Structure (SMILES) | IC50
Cc1ccc(C(=O)N2CCc3[nH]c4ccc(-c5ccc(C6CCCCC6)cc5)cc4c3C2)cn1 [Formula 67, (8-(4-Cyclohexylphenyl)-1,3,4,5-tetrahydro-2H-pyrido[4,3-b]indol-2-yl)(6-methylpyridin-3-yl)methanone] | 3 to 12 µM
Cn1ccc2c(C(=O)N3CCc4[nH]c5ccc(-c6ccccc6)cc5c4C3)cccc21 [Formula 10, (1-methyl-1H-indol-4-yl)(8-phenyl-1,3,4,5-tetrahydro-2H-pyrido[4,3-b]indol-2-yl)methanone] | 3 to 12 µM
Cc1ccc(-c2ccc3[nH]c4c(c3c2)CN(C(=O)C2CCCCC2)CC4)cc1 [Formula 36, Cyclohexyl(8-(p-tolyl)-1,3,4,5-tetrahydro-2H-pyrido[4,3-b]indol-2-yl)methanone] | 3 to 12 µM
Cc1ccccc1-c1ccc2[nH]c3c(c2c1)CN(C(=O)c1ccncc1)CC3 [Formula 21, Pyridin-4-yl(8-(o-tolyl)-1,3,4,5-tetrahydro-2H-pyrido[4,3-b]indol-2-yl)methanone] | 3 to 12 µM
Cc1ccc(-c2ccc3[nH]c4c(c3c2)CN(C(=O)c2ccnc(C)c2)CC4)cc1 [Formula 41, (2-methylpyridin-4-yl)(8-(p-tolyl)-1,3,4,5-tetrahydro-2H-pyrido[4,3-b]indol-2-yl)methanone] | 3 to 12 µM
Cc1ccc(C(=O)N2CCc3[nH]c4ccc(-c5ccc(C#N)cc5)cc4c3C2)cc1 [Formula 52] | < 3 µM
Cc1ccc(-c2ccc3[nH]c4c(c3c2)CN(C(=S)Nc2ccccc2)CC4)cc1 [Formula 74, N-phenyl-8-(p-tolyl)-1,3,4,5-tetrahydro-2H-pyrido[4,3-b]indole-2-carbothioamide] | 3 to 12 µM
O=S(=O)(c1cccnc1)N1CCc2[nH]c3cc(-c4ccccc4)ccc3c2C1 [Formula 34, 7-phenyl-2-(pyridin-3-ylsulfonyl)-2,3,4,5-tetrahydro-1H-pyrido[4,3-b]indole] | 3 to 12 µM
COc1ccc(C(=O)N2CCc3[nH]c4ccc(-c5ccccc5)cc4c3C2)cc1 [Formula 17, (4-methoxyphenyl)(8-phenyl-1,3,4,5-tetrahydro-2H-pyrido[4,3-b]indol-2-yl)methanone] | 3 to 12 µM
N#Cc1ccc(-c2ccc3[nH]c4c(c3c2)CN(C(=O)c2cccc(C#N)c2)CC4)cc1 [Formula 55] | 12 to 25 µM

Next, values leading:

IC50 | Structure (SMILES)
3 to 12 µM | Cc1ccc(-c2ccc3[nH]c4c(c3c2)CN(C(=O)c2ccccc2)CC4)cn1 [Formula 47, (8-(6-methylpyridin-3-yl)-1,3,4,5-tetrahydro-2H-pyrido[4,3-b]indol-2-yl)(phenyl)methanone]
3 to 12 µM | Cc1cccc(C(=O)N2CCc3[nH]c4ccc(-c5ccccc5)cc4c3C2)c1 [Formula 15, (8-phenyl-1,3,4,5-tetrahydro-2H-pyrido[4,3-b]indol-2-yl)(m-tolyl)methanone]
12 to 25 µM | O=C(c1ccccc1)N1CCc2[nH]c3ccc(-c4cccnc4)cc3c2C1 [Formula 42, Phenyl(8-(pyridin-3-yl)-1,3,4,5-tetrahydro-2H-pyrido[4,3-b]indol-2-yl)methanone]
3 to 12 µM | Cc1ccc(C(=O)N2CCc3[nH]c4ccc(-c5ccccc5)cc4c3C2)cn1 [Formula 5, (6-methylpyridin-3-yl)(8-phenyl-1,3,4,5-tetrahydro-2H-pyrido[4,3-b]indol-2-yl)methanone]
< 3 µM | Cc1ccc(-c2ccc3[nH]c4c(c3c2)CN(C(=O)c2ccccc2)CC4)cc1 [Formula 30, Phenyl(8-(p-tolyl)-1,3,4,5-tetrahydro-2H-pyrido[4,3-b]indol-2-yl)methanone]
3 to 12 µM | Cc1ccc(C(=O)N2CCc3[nH]c4ccc(-c5cccc(C#N)c5)cc4c3C2)cn1 [Formula 57, 3-(2-(6-Methylnicotinoyl)-2,3,4,5-tetrahydro-1H-pyrido[4,3-b]indol-8-yl)benzonitrile]
3 to 12 µM | CCc1ccc(C(=O)N2CCc3[nH]c4ccc(-c5ccccc5)cc4c3C2)cc1 [Formula 16, (4-ethylphenyl)(8-phenyl-1,3,4,5-tetrahydro-2H-pyrido[4,3-b]indol-2-yl)methanone]
